Literature values in US20240182984A1, “METHODS FOR ASSESSING PROLIFERATION AND ANTI-FOLATE THERAPEUTIC RESPONSE” (priority 2021, published 2024).

Test system: bronchioid subtype of LUAD
Conditions: compared with other LUAD subtypes

## Nc1nc2[nH]cc(CCc3ccc(C(=O)N[C@@H](CCC(=O)O)C(=O)O)cc3)c2c(=O)[nH]1 [pemetrexed]
  sensitivity of the bronchioid subtype of LUAD (Group 1): more sensitive
